In US20230286958A1, “PLASMA KALLIKREIN INHIBITORS” (Merck Sharp & Dohme LLC, priority 2020, published 2023):
pIC50: −log10 of the molar value.

Legend:
[1] = biological target: Human plasma kallikrein (Homo sapiens (Human), UniProt P03952); assay: Kallikrein Assay (fluorogenic substrate Acetyl-K-P-R-AFC); format: biochemical; conditions: Plasma Kallikrein (PKal)
Outline: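 Ki is derived from IC50 with the Cheng-Prusoff equation, and IC50 from the inflection point of a four-parameter logistic curve. The rate of AFC release is read with 0.5 nM purified enzyme and […] substrate at room temperature or 37 °C.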

[2] = biological target: human Factor XIa (Homo sapiens (Human), UniProt P03951); assay: Factor XIa Assay (fluorogenic substrate GPR-AFC); format: biochemical; conditions: Factor XIa (FXIa)
Sequence of human Factor XIa (P03951 388-625 limits assumed): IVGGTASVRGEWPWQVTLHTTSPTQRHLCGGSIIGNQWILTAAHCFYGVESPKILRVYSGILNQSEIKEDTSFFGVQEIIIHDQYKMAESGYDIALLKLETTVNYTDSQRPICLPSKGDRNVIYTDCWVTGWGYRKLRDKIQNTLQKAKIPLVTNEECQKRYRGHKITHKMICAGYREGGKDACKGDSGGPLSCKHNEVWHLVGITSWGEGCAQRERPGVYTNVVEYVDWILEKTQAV
Sequence of human Factor XIa (P03951 19-387 partner limits assumed): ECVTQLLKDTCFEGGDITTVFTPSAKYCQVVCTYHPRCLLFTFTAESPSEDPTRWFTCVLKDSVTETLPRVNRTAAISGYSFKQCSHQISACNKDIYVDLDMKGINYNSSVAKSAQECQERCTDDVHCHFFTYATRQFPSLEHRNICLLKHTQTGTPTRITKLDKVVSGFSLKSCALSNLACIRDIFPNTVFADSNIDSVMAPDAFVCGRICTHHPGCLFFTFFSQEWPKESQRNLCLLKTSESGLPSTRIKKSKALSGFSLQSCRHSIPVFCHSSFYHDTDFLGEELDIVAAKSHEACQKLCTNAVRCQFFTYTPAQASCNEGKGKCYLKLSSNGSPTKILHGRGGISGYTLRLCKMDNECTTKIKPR

Sequence of Human plasma kallikrein (P03952 391-638): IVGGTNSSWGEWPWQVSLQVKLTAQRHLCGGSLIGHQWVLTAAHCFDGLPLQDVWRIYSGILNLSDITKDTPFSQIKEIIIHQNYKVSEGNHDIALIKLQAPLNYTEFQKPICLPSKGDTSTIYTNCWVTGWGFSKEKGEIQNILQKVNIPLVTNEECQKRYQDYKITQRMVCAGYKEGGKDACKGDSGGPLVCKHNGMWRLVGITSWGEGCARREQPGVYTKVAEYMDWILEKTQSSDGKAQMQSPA
Sequence of Human plasma kallikrein (P03952 20-390 partner): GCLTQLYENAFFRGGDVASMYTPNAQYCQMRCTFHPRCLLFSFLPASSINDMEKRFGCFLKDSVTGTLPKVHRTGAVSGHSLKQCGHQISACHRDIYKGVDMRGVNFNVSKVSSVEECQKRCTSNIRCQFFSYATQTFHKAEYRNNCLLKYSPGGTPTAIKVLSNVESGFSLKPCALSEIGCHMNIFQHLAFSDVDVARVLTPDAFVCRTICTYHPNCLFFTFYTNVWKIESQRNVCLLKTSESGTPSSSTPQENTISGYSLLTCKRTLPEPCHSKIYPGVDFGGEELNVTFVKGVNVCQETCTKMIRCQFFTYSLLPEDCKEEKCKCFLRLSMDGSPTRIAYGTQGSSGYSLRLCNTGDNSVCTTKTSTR

| pIC50 [1] | pIC50 [2] | SMILES |
| --- | --- | --- |
| 9.22 | 6.01 | Cc1cc(C(C)n2cc(NC(=O)c3nc(-c4c(C#N)ccc(Cl)c4F)cnc3C)cn2)cnc1N1C[C@H]2C[C@H]2C1=O (single isomer, unassigned) [Example 140, 6-(3-Chloro-6-cyano-2-fluorophenyl)-3-methyl-N-(1-((R or S)-1-(5-methyl-6-((IR,5S)-2-oxo-3-azabicyclo[3.1.0]hexan-3-yl)pyridin-3-yl)ethyl)-1H-pyrazol-4-yl)pyrazine-2-carboxamide] |
| 8.96 | 6.95 | Cc1ncc(-c2c(C(F)F)ccc(Cl)c2F)nc1C(=O)Nc1cnn(Cc2cnc(N3C[C@H]4C[C@H]4C3=O)c(N)c2)c1 [Example 191, N-(1-((5-Amino-6-((1R,5S)-2-oxo-3-azabicyclo[3.1.0]hexan-3-yl)pyridin-3-yl)methyl)-1H-pyrazol-4-yl)-6-(3-chloro-6-(difluoromethyl)-2-fluorophenyl)-3-methylpyrazine-2-carboxamide] |
| 9.22 | 6.02 | Cc1ncc(-c2c(OC(F)F)ccc(Cl)c2F)nc1C(=O)Nc1cnn(C(C)c2cnc(N3C[C@H]4C[C@H]4C3=O)c(C)n2)c1 (single isomer, unassigned) [Example 124, 6-(3-Chloro-6-(difluoromethoxy)-2-fluorophenyl)-3-methyl-N-(1-((R or S)-1-(6-methyl-5-((1R,5S)-2-oxo-3-azabicyclo[3.1.0]hexan-3-yl)pyrazin-2-yl)ethyl)-1H-pyrazol-4-yl)pyrazine-2-carboxamide] |
| 9.40 | 6.97 | Cc1c(C(C)n2cc(NC(=O)c3cncc(-c4c(C(F)F)ccc(Cl)c4F)n3)cn2)nnc(N2C[C@H]3C[C@H]3C2=O)c1C (single isomer, unassigned) [Example 111, 6-(3-Chloro-6-(difluoromethyl)-2-fluorophenyl)-N-(1-((R or S)-1-(4,5-dimethyl-6-((1R,5S)-2-oxo-3-azabicyclo[3.1.0]hexan-3-yl)pyridazin-3-yl)ethyl)-1H-pyrazol-4-yl)pyrazine-2-carboxamide] |
| 7.84 | 5.34 | COc1nc(N2C[C@H]3C[C@H]3C2=O)ncc1Cn1cc(NC(=O)c2nc(-c3c(C(F)F)ccc(Cl)c3F)cnc2C)cn1 [Example 95, 6-(3-Chloro-6-(difluoromethyl)-2-fluorophenyl)-N-(1-((4-methoxy-2-((1R, 5S)-2-oxo-3-azabicyclo[3.1.0]hexan-3-yl)pyrimidin-5-yl)methyl)-1H-pyrazol-4-yl)-3-methylpyrazine-2-carboxamide] |
| 8.72 | 6.28 | Cc1ncc(-c2c(C(F)F)ccc(Cl)c2F)nc1C(=O)Nc1cnn(Cc2cnc(N3C[C@H]4C[C@H]4C3=O)c(Cl)c2)c1 [Example 7, N-(1-((5-Chloro-6-((1R,5S)-2-oxo-3-azabicyclo[3.1.0]hexan-3-yl)pyridin-3-yl)methyl)-1H-pyrazol-4-yl)-6-(3-chloro-6-(difluoromethyl)-2-fluorophenyl)-3-methylpyrazine-2-carboxamide] |
| 7.71 | 5.92 | CCc1ncc(-c2c(C(F)F)ccc(Cl)c2F)nc1C(=O)Nc1cnn(Cc2cc(C)c(N3C[C@H]4C[C@H]4C3=O)nn2)c1 [Example 233, 6-(3-Chloro-6-(difluoromethyl)-2-fluorophenyl)-3-ethyl-N-(1-((5-methyl-6-((1R,5S)-2-oxo-3-azabicyclo[3.1.0]hexan-3-yl)pyridazin-3-yl)methyl)-1H-pyrazol-4-yl)pyrazine-2-carboxamide] |
| 8.72 | 5.94 | Cc1nc(C(C)n2cc(NC(=O)c3cncc(-c4c(C(F)F)ccc(Cl)c4F)n3)cn2)cnc1N1C[C@H]2C[C@H]2C1=O (single isomer, unassigned) [Example 12, 6-(3-Chloro-6-(difluoromethyl)-2-fluorophenyl)-N-(1-((S or R)-1-(6-methyl-5-((1R,5S)-2-oxo-3-azabicyclo[3.1.0]hexan-3-yl)pyrazin-2-yl)ethyl)-1H-pyrazol-4-yl)pyrazine-2-carboxamide] |
| 7.86 | < 5.00 | CC(c1ccc(N2C[C@H]3C[C@H]3C2=O)nc1)n1cc(NC(=O)c2cncc(-c3c(C#N)ccc(Cl)c3F)n2)cn1 (single isomer, unassigned) [Example 90, 6-(3-Chloro-6-cyano-2-fluorophenyl)-N-(1-((R or S)-1-(6-((1R,SS)-2-oxo-3-azabicyclo[3.1.0]hexan-3-yl)pyridin-3-yl)ethyl)-1H-pyrazol-4-yl)pyrazine-2-carboxamide] |
| 8.60 | 6.06 | Cc1nc(N2C[C@H]3C[C@H]3C2=O)ncc1Cn1cc(NC(=O)c2nc(-c3c(C(F)F)ccc(Cl)c3F)cnc2C)cn1 [Example 33, 6-(3-Chloro-6-(difluoromethyl)-2-fluorophenyl)-3-methyl-N-(1-((4-methyl-2-((1R,5S)-2-oxo-3-azabicyclo[3.1.0]hexan-3-yl)pyrimidin-5-yl)methyl)-1H-pyrazol-4-yl)pyrazine-2-carboxamide] |

More lines, now with the values behind:

| SMILES | pIC50 [1] | pIC50 [2] |
| --- | --- | --- |
| CC(c1ccc(N2CC3CC3C2=O)nc1)n1cc(NC(=O)c2cncc(-c3c(C(F)F)ccc(Cl)c3F)n2)cn1 (single isomer, unassigned) [Example 10, 6-(3-Chloro-6-(difluoromethyl)-2-fluorophenyl)-N-(1-((S or R)-1-(6-((1R,5S or 1S,5R)-2-oxo-3-azabicyclo[3.1.0]hexan-3-yl)pyridin-3-yl)ethyl)-1H-pyrazol-4-yl)pyrazine-2-carboxamide] | 7.77 | < 5.00 |
| Cc1cc(C(C)n2cc(NC(=O)c3nc(-c4c(C#N)ccc(Cl)c4F)cnc3C)cn2)nnc1N1C[C@H]2C[C@H]2C1=O (single isomer, unassigned) [Example 236, 6-(3-Chloro-6-cyano-2-fluorophenyl)-3-methyl-N-(1-((R or S)-1-(5-methyl-6-((1R,5S)-2-oxo-3-azabicyclo[3.1.0]hexan-3-yl)pyridazin-3-yl)ethyl)-1H-pyrazol-4-yl)pyrazine-2-carboxamide] | 9.15 | 6.12 |
| Cc1ncc(-c2c(C(F)F)ccc(Cl)c2F)nc1C(=O)Nc1cnn(C(CO)c2cnc(N3C[C@H]4C[C@H]4C3=O)nc2)c1 (single isomer, unassigned) [Example 165, 6-(3-Chloro-6-(difluoromethyl)-2-fluorophenyl)-N-(1-((S or R)-2-hydroxy-1-(2-((1R,5S)-2-oxo-3-azabicyclo[3.1.0]hexan-3-yl)pyrimidin-5-yl)ethyl)-1H-pyrazol-4-yl)-3-methylpyrazine-2-carboxamide] | 7.68 | 5.69 |
| Cc1ncc(-c2c(C#N)ccc(Cl)c2F)nc1C(=O)Nc1cnn(C(C)c2cnc(N3C[C@H]4C[C@H]4C3=O)c(C)n2)c1 (single isomer, unassigned) [Example 234, 6-(3-Chloro-6-cyano-2-fluorophenyl)-3-methyl-N-(1-((R or S)-1-(6-methyl-5-((1R,5S)-2-oxo-3-azabicyclo[3.1.0]hexan-3-yl)pyrazin-2-yl)ethyl)-1H-pyrazol-4-yl)pyrazine-2-carboxamide] | 9.00 | 6.17 |
| Cc1cc(C(C)n2cc(NC(=O)c3nc(-c4c(C(F)F)ccc(Cl)c4F)cnc3C(C)O)cn2)cnc1N1C[C@H]2C[C@H]2C1=O (single isomer, unassigned) [Example 213, 6-(3-Chloro-6-(difluoromethyl)-2-fluorophenyl)-3-((Ror S)-1-hydroxyethyl)-N-(1-((R or S)-1-(5-methyl-6-((1R,5S)-2-oxo-3-azabicyclo[3.1.0]hexan-3-yl)pyridin-3-yl)ethyl)-1H-pyrazol-4-yl)pyrazine-2-carboxamide] | 9.05 | 5.69 |
| Cc1nc(N2C[C@@H]3C[C@@H]3C2=O)ncc1[C@@H](CO)n1cc(NC(=O)c2cncc(-c3c(C(F)F)ccc(Cl)c3F)n2)cn1 [Example 157, 6-(3-Chloro-6-(difluoromethyl)-2-fluorophenyl)-N-(1-((S)-2-hydroxy-1-(4-methyl-2-((1S,5R)-2-oxo-3-azabicyclo[3.1.0]hexan-3-yl)pyrimidin-5-yl)ethyl)-1H-pyrazol-4-yl)pyrazine-2-carboxamide] | 5.99 | < 5.00 |
| CC(c1cnc(N2CC3CC3C2=O)nc1)n1cc(NC(=O)c2cncc(-c3c(OC(F)F)ccc(Cl)c3F)n2)cn1 (single isomer, unassigned) [Example 72, 6-(3-Chloro-6-(difluoromethoxy)-2-fluorophenyl)-N-(1-((R or S)-1-(2-((1R,5S or 1S,5R)-2-oxo-3-azabicyclo[3.1.0]hexan-3-yl)pyrimidin-5-yl)ethyl)-1H-pyrazol-4-yl)pyrazine-2-carboxamide] | 8.43 | 5.56 |
| Cc1ncc(-c2c(C(F)F)ccc(Cl)c2F)nc1C(=O)Nc1cnn(C(C)c2ccc(N3CC4CC4C3=O)nc2)c1 (single isomer, unassigned) [Example 76, 6-(3-Chloro-6-(difluoromethyl)-2-fluorophenyl)-3-methyl-N-(1-((S or R)-1-(6-((1S,5R or 1R,5S)-2-oxo-3-azabicyclo[3.1.0]hexan-3-yl)pyridin-3-yl)ethyl)-1H-pyrazol-4-yl)pyrazine-2-carboxamide] | 7.37 | < 5.00 |
| Cc1cc([C@H](C)n2cc(NC(=O)c3cncc(-c4c(C(F)F)ccc(Cl)c4F)n3)cn2)nnc1N1C[C@H]2C[C@H]2C1=O [Example 37, 6-(3-Chloro-6-(difluoromethyl)-2-fluorophenyl)-N-(1-((S)-1-(5-methyl-6-((1R,5S)-2-oxo-3-azabicyclo[3.1.0]hexan-3-yl)pyridazin-3-yl)ethyl)-1H-pyrazol-4-yl)pyrazine-2-carboxamide] | 8.92 | 5.90 |
| Cc1cc(C(C)n2cc(NC(=O)c3nc(-c4c(C#N)ccc(Cl)c4F)cnc3C)cn2)cnc1N1C[C@H]2C[C@H]2C1=O (single isomer, unassigned) [Example 139, 6-(3-Chloro-6-cyano-2-fluorophenyl)-3-methyl-N-(1-((S or R)-1-(5-methyl-6-((1R,5S)-2-oxo-3-azabicyclo[3.1.0]hexan-3-yl)pyridin-3-yl)ethyl)-1H-pyrazol-4-yl)pyrazine-2-carboxamide] | 9.05 | 6.55 |
